Assay results from US20240299376A1, “METHOD OF TREATING A CONDITION USING A […] EFFECTIVE DOSE OF 1-(1-OXO-1,2-DIHYDROISOQUINOLIN-5-YL)-5-(TRIFLUOROMETHYL)-N-(2-(TRIFLUOROMETHYL)PYRIDIN-4-YL)-1H-PYRAZOLE-4-CARBOXAMIDE” (Janssen Pharmaceutica NV, priority 2021, published 2024).

Legend:
[1] = Single oral dose plasma PK in fasted dogs; type: in vivo, dog; conditions: for AUC(0-t) / Tmax / Cmax / bioavailability / AUC(0-inf) / half-life: beagle, dog, plasma
Text: With the suspension formulation the double-peak phenomenon is even more pronounced.
As observed in rats, dose escalation in dogs resulting in proportional or dose-related exposure with the PEG400 solution was unsuccessful in identifying a vehicle suitable for toxicology studies.

[2] = Pharmacokinetic modeling and simulations to predict the human dose; conditions: corresponds to mouse trough at 10 mg/kg BID after accounting for protein binding difference mice/human
Experimental: According to the tested scenario, the minimum predicted efficacious dose is approximately 110 mg given once daily.
The pharmacokinetic modeling was used based on available non-clinical pharmacokinetic data and allometric scaling. In addition, modeling using GastroPlus and SimCYP was also used to guide PK parameter prediction.

[3] = male, po, 5 mg/kg, 3M (N = 2 used), 5 mg/kg PO, 100% PEG400 solution, Study 1
[4] = male, po, 5 mg/kg, 3M, 5 mg/kg PO, 0.5% HPMC suspension, Study 4
[5] = male, po, 5 mg/kg, 3M, 5 mg/kg PO, -ZAF salt nanosuspension (HPMC:DOSS suspension), Study 5
[6] = male, po, 20 mg/kg, 3M, 20 mg/kg PO, 0.5% HPMC suspension, Study 2
[7] = male, po, 20 mg/kg, 3M, 20 mg/kg PO, 0.5% HPMC suspension, Study 4
[8] = male, po, 20 mg/kg, 3M, 20 mg/kg PO, 100% PEG400 solution, Study 3
[9] = male, po, 20 mg/kg, 3M, 20 mg/kg PO, -ZAF salt nanosuspension (HPMC:DOSS suspension), Study 5
[10] = male, po, 22.5 mg/kg, 3M, 22.5 mg/kg PO, PEG400/PVP VA 90:10 solution, Study 6

SMILES: O=C(Nc1ccnc(C(F)(F)F)c1)c1cnn(-c2cccc3c(=O)[nH]ccc23)c1C(F)(F)F [Compound A, 1-(1-oxo-1,2-dihydroisoquinolin-5-yl)-5-(trifluoromethyl)-N-[2-(trifluoromethyl)pyridin-4-yl]-1H-pyrazole-4-carboxamide]
- AUC(0-t) ([1]; female, po, 480 mg/kg, 2F, 480 mg/kg PO, PEG400/PVP VA 90:10 solution, Study 7, Tlast = 96 hours): 1510 µg·h/mL
- Tmax ([1]; female, po, 480 mg/kg, 2F, 480 mg/kg PO, PEG400/PVP VA 90:10 solution, Study 7, median): 27.5 h
- Cmax ([1]; female, po, 560 mg/kg, 2F, 560 mg/kg PO, 100% PEG400 solution, Study 7): 31800 ng/mL
- AUC(0-t) ([1]; female, po, 560 mg/kg, 2F, 560 mg/kg PO, 100% PEG400 solution, Study 7, Tlast = 96 hours): 2010 µg·h/mL
- Tmax ([1]; female, po, 560 mg/kg, 2F, 560 mg/kg PO, 100% PEG400 solution, Study 7, median): 24 h
- increase in Cmax and AUC ([1]; from 22.5 to 280 mg/kg, PVP VA in PEG400 solution): approximately 5 fold
- bioavailability ([1]; male, oral, 5 mg/kg, 5 mg/kg PO, 100% PEG400 solution, Study 1, calculated using the IV data from Study 1): > 100%
- bioavailability ([1]; male, po, 5 mg/kg, 5 mg/kg PO, 0.5% HPMC suspension, Study 4): 14 to 66%
- AUC(0-inf) [1, 3]: 146 µg·h/mL
- Cmax [1, 3]: 6150 ng/mL
- Tmax [1, 3]: 2 h
- half-life [1, 3]: 17.3 h
- AUC(0-t) ([1]; male, po, 5 mg/kg, 3M (N = 2 used), 5 mg/kg PO, 100% PEG400 solution, Study 1, Tlast = 48 hours): 143 µg·h/mL
- AUC(0-inf) [1, 4]: 30.7 µg·h/mL
- AUC(0-t) [1, 4]: 43.7 µg·h/mL
- Cmax [1, 4]: 2030 ng/mL
- Tmax [1, 4]: 9 h
- half-life [1, 4]: 21.8 h
- AUC(0-inf) [1, 5]: 26.4 µg·h/mL
- AUC(0-t) [1, 5]: 43.7 µg·h/mL
- Cmax [1, 5]: 1450 ng/mL
- Tmax [1, 5]: 9.33 h
- half-life [1, 5]: 11.5 h
- AUC(0-inf) ([1]; male, po, 20 mg/kg, 20 mg/kg PO, 0.5% HPMC suspension, Study 2, N = 1 animal with low exposure): 15.6 µg·h/mL
- bioavailability ([1]; male, po, 20 mg/kg, 20 mg/kg PO, 100% PEG400 solution, Study 3): 33 to 72%
- Cmax [1, 6]: 4010 ng/mL
- Tmax [1, 6]: 16.7 h
- half-life [1, 6]: 17.8 h
- AUC(0-t) ([1]; male, po, 20 mg/kg, 3M, 20 mg/kg PO, 0.5% HPMC suspension, Study 2, Tlast = 72 hours): 153 µg·h/mL
- AUC(0-inf) [1, 7]: 31.8 µg·h/mL
- AUC(0-t) [1, 7]: 160 µg·h/mL
- Cmax [1, 7]: 4080 ng/mL
- Tmax [1, 7]: 16.7 h
- half-life [1, 7]: 14.3 h
- AUC(0-inf) [1, 8]: 224 µg·h/mL
- Cmax [1, 8]: 5770 ng/mL
- Tmax [1, 8]: 8.33 h
- half-life [1, 8]: 18.6 h
- AUC(0-t) ([1]; male, po, 20 mg/kg, 3M, 20 mg/kg PO, 100% PEG400 solution, Study 3, Tlast = 96 hours): 215 µg·h/mL
- AUC(0-inf) [1, 9]: 87 µg·h/mL
- AUC(0-t) [1, 9]: 111 µg·h/mL
- Cmax [1, 9]: 3510 ng/mL
- Tmax [1, 9]: 9 h
- half-life [1, 9]: 16.6 h
- AUC(0-inf) [1, 10]: 757 µg·h/mL
- Cmax [1, 10]: 21000 ng/mL
- Tmax [1, 10]: 1.25 h
- half-life [1, 10]: 14.1 h
- AUC(0-t) ([1]; male, po, 22.5 mg/kg, 3M, 22.5 mg/kg PO, PEG400/PVP VA 90:10 solution, Study 6, Tlast = 96 hours): 741 µg·h/mL
- Ctrough at steady state targeted in humans [2]: 4640 ng/mL
